The text below walks through data of patent US20080221205A1, “FURAN DERIVATIVES FOR PREVENTING AND CURING OSTEOPOROSIS AND PHARMACEUTICAL COMPOSITIONS CONTAINING THE SAME” (priority 2002, published 2008).

For the assay, the system named is osteoclast formation. Nature of the assay: Inhibition rate of furan derivatives versus osteoclast formation (TRAP staining). The following applies: TRAP-positive multinucleated cells, untreated control set as 100%. It is filed as cell-based, mice. On the procedure:
First, bone marrow cells were isolated, as follow. After sacrificing 7-9 week female mice by cervical dislocation, femur and tibia were excised aseptically while removing attached soft tissues. After cutting both ends of long bones, 1 ml of an enzyme solution, containing 0.1% collagenase (Gibco), 0.05% trypsin and 0.5 mM EDTA (Gibco), was injected to the bone marrow cavity at one end using a syringe with a 26-guage needle, and bone marrow was then collected. After shaking the recovered bone marrow for 30 min, bone marrow cells were collected, and cultured in α-minimum essential medium (α-MEM) supplemented with 10% FBS for 24 hrs. Then, non-adherent cells were collected, which are osteoclast pregenitors, aliquotted onto culture plates at a density of 2×10^5 cells per well, and cultured for 8 days in α-MEM supplemented with 20 ng/ml of macrophage-colony stimulating factor (M-CSF, Peprotech, USA) and 30 ng/ml RANKL (Peprotech, USA). During the 8 days of culturing, the cells were treated with the Compound 1. Thereafter, osteoclast formation was investigated by fixing the cultured cells and then carrying out TRAP staining, as described in the following Experimental Example 2.2. In addition, resorption activity of osteoclasts was investigated by measuring the absorption area after removing osteoclasts in cultures in calcium phosphate-coated plates, as described in Experimental Example 2.3, below.
After cell culture, the adherent cells were washed with PBS, and TRAP staining was performed, as follows. After being fixed with citrate-acetate-formaldehyde for 5 min, the cells were incubated for 1 hr in acetate buffer (prewarmed at 37° C., pH 5.0) containing naphthol AS-BI phosphate, fast Garnet GBC and 7 mM tartrate buffer (pH 5.0). TRAP-positive multinucleated cells having 3 or more nuclei were considered as osteoclasts.
Osteoclast pregenitor cells were isolated, and their differentiation to mature osteoclasts was induced, according to the same method as in the Experimental Example 2-1, while treated with each of the furan derivatives of the present invention. According to the same method as in the Experimental Example 2-2, TRAP staining performed, and TRAP-positive multinucleated cells were counted. An inhibition rate of each furan derivative against osteoclast formation was expressed as percentage, wherein the number of stained cells in a control not treated the furan derivative was arbitrarily set as 100% (Tables 14 to 16).

As for `COC(=O)c1ccccc1NC(=O)c1ccc(COc2ccc(Cl)cc2Cl)o1` [Compound 167], the “Inhibition rate against osteoclast formation, %” value (from here on “Inhibition rate … %”) (0.1 μM) amounted to 0%.

Regarding `CC1CCN(C(=O)c2ccc(COc3cc(Cl)ccc3Cl)o2)CC1` [Compound 124], the “Inhibition rate … %” value is recorded as 0% (0.1 μM) and 0% (1 μM).

Consider `O=Cc1ccc(COC(=O)Nc2cccc(Cl)c2)o1` [Compound 49], for which the “Inhibition rate … %” value runs as follows: (0.1 μM) 0%; (1 μM) 10%; (10 μM) 0%.

With `CCOc1ccccc1NC(=O)c1ccc(COc2ccc(Cl)cc2[N+](=O)[O-])o1` [Compound 144], the “Inhibition rate … %” value (0.1 μM) amounted to 0%.

Turning to `CCCCNC(=O)OCc1ccc(C=O)o1` [Compound 53], the “Inhibition rate … %” value is 0% (0.1 μM) and 10% (1 μM).

`CC(C)(C)c1ccc(OCc2ccc(C(=O)Nc3ccccc3)o2)cc1` [Compound 136]: the “Inhibition rate … %” value is, setting by setting: (0.1 μM) 0%; (1 μM) 0%.

`O=C(O)c1ccc(COc2ccccc2Br)o1` [Compound 108]: the “Inhibition rate … %” value is listed as 0% (0.1 μM) and 0% (1 μM).

For `Cc1cc(OCc2ccc(C(=O)O)o2)ccc1Cl` [Compound 119], the “Inhibition rate … %” value reads like this: (0.1 μM) 0%; (1 μM) 0%.

In the case of `COc1ccc(NC(=O)c2ccc(COc3ccc(Cl)c(C)c3)o2)cc1` [Compound 150], the “Inhibition rate … %” value is, setting by setting: (0.1 μM) 0%; (1 μM) 0%.

Regarding `COC(=O)c1ccc(COc2cc(C)ccc2C(C)C)o1` [Compound 68], the “Inhibition rate … %” value is, setting by setting: (0.1 μM) 0%; (1 μM) 0%; (10 μM) 5.62%.

On to `Cc1cccc(C)c1NC(=O)c1ccc(COc2ccc(Cl)cc2)o1` [Compound 179], for which the “Inhibition rate … %” value runs as follows: (0.1 μM) 0%; (1 μM) 0%.

With `O=C(c1ccc(COc2ccccc2Br)o1)N1CCCCCC1` [Compound 128], the “Inhibition rate … %” value (1 μM) is given as 0%.

Take `CCCc1ccc(OCc2ccc(C(=O)Nc3ccc(F)cc3F)o2)c(OC)c1` [Compound 176]: the “Inhibition rate … %” value reads like this: (0.1 μM) 0%; (1 μM) 0%.

With `O=C(O)c1ccc(COc2ccc(Br)cc2)o1` [Compound 103], the “Inhibition rate … %” value (0.1 μM) amounted to 0% and the “Inhibition rate … %” value (1 μM) turned out to be 0%.

On to `CCCc1ccc(OCc2ccc(C(=O)Nc3ccc(OC)c(OC)c3)o2)cc1` [Compound 164], for which the “Inhibition rate … %” value is, setting by setting: (0.1 μM) 0%; (1 μM) 0%.

On to `COc1ccc(F)c(CC(=O)OCc2ccc(C=O)o2)c1` [Compound 42], for which the “Inhibition rate … %” value (0.1 μM) was 0%.

As for `COC(=O)c1ccc(COc2ccccc2[N+](=O)[O-])o1` [Compound 67], the “Inhibition rate … %” value by setting is: (0.1 μM) 0%; (1 μM) 0%.

Regarding `CC(C)(C)NC(=O)c1ccc(COCC(F)(F)F)o1` [Compound 127], the “Inhibition rate … %” value (0.1 μM) amounted to 0% and the “Inhibition rate … %” value (1 μM) is listed as 0%.

Regarding `CC(=O)c1ccc(NC(=O)c2ccc(COc3cccc4ccccc34)o2)cc1` [Compound 160], the “Inhibition rate … %” value by setting is: (0.1 μM) 0%; (1 μM) 0%.

Take `COc1cccc(F)c1CC(=O)OCc1ccc(C=O)o1` [Compound 41]: the “Inhibition rate … %” value (0.1 μM) is listed as 0%.

As to `O=C(Nc1cccc(Br)c1)c1ccc(COc2ccc(F)cc2)o1` [Compound 140], the “Inhibition rate … %” value reads like this: (0.1 μM) 0%; (1 μM) 0%.

As for `COc1ccccc1NC(=O)c1ccc(COc2ccc(C(C)(C)C)cc2)o1` [Compound 189], the “Inhibition rate … %” value was 0% (0.1 μM) and 0% (1 μM).

Turning to `COC(=O)c1ccc(COc2ccc(I)cc2)o1` [Compound 79], the “Inhibition rate … %” value turned out to be 0% (0.1 μM) and 0% (1 μM).

For the molecule `O=Cc1ccc(COC(=O)Nc2ccccc2Cl)o1` [Compound 55], the “Inhibition rate … %” value runs as follows: (0.1 μM) 0%; (1 μM) 20%; (10 μM) 20%.

Regarding `COc1ccc(NC(=O)c2ccc(COc3ccc(F)cc3)o2)c([N+](=O)[O-])c1` [Compound 149], where the note is “0.1 μM”, the “Inhibition rate … %” value worked out at 0%.

Take `COC(=O)c1ccc(C)c(NC(=O)c2ccc(COc3ccc(I)cc3)o2)c1` [Compound 152]: the “Inhibition rate … %” value (1 μM) worked out at 0.08%.

For the molecule `COc1ccccc1OCc1ccc(C(=O)Nc2ccc(C)c(C)c2)o1` [Compound 175], the “Inhibition rate … %” value (0.1 μM) is listed as 0% and the “Inhibition rate … %” value (1 μM) was 0%.

Take `COC(=O)c1ccc(COc2ccc(Cl)cc2Cl)o1` [Compound 60]: the “Inhibition rate … %” value is, setting by setting: (0.1 μM) 0%; (1 μM) 0%.

As to `CCc1ccc(OCc2ccc(C(=O)Nc3cc(C)cc(C)c3)o2)cc1` [Compound 169], the “Inhibition rate … %” value stood at 0% (0.1 μM) and 0% (1 μM).

For `COc1ccccc1OCc1ccc(C(=O)Oc2ccc(Cl)cc2)o1` [Compound 97], the “Inhibition rate … %” value was 0% (0.1 μM) and 0% (1 μM).

In the case of `CC(C)NC(=O)c1ccc(CNc2cc(Cl)ccc2Cl)o1` [Compound 130], the “Inhibition rate … %” value (0.1 μM) is given as 0% and the “Inhibition rate … %” value (1 μM) came out at 0%.

Take `O=C(Nc1cc(F)ccc1F)c1ccc(COc2cccc(Cl)c2)o1` [Compound 151]: the “Inhibition rate … %” value came out at 0% (0.1 μM) and 0% (1 μM).

On to `COC(=O)c1ccc(COc2ccc3c(c2)CCC3)o1` [Compound 70], for which the “Inhibition rate … %” value is, setting by setting: (0.1 μM) 0%; (1 μM) 0%.

Turning to `O=Cc1ccc(COC(=O)Cc2ccsc2)o1` [Compound 36], the “Inhibition rate … %” value (0.1 μM) is on record as 0% and the “Inhibition rate … %” value (10 μM) was 30%.

As to `COC(=O)c1ccccc1NC(=O)c1ccc(COc2ccc(C)c(C)c2)o1` [Compound 180], the “Inhibition rate … %” value (0.1 μM) was 0% and the “Inhibition rate … %” value (1 μM) is given as 0%.

With `Cc1ccc(F)c(NC(=O)c2ccc(COc3ccc(C)cc3[N+](=O)[O-])o2)c1` [Compound 155], the “Inhibition rate … %” value (0.1 μM) was determined as 0% and the “Inhibition rate … %” value (1 μM) stood at 0%.

Consider `O=Cc1ccc(COC(=O)Cc2c(F)cccc2F)o1` [Compound 33], for which the “Inhibition rate … %” value is, setting by setting: (0.1 μM) 0%; (1 μM) 3.3%; (10 μM) 50%.

For the molecule `COc1ccc(NC(=O)c2ccc(COc3cc(Cl)ccc3Cl)o2)c(OC)c1` [Compound 145], the “Inhibition rate … %” value (0.1 μM) stood at 0%.

Consider `O=C(Nc1ccccc1[N+](=O)[O-])c1ccc(COc2ccccc2Cl)o1` [Compound 183], for which the “Inhibition rate … %” value by setting is: (0.1 μM) 0%; (1 μM) 0%.
